Assay [1] deals with Serine/threonine-protein kinase 38-like (Homo sapiens) (UniProt Q9Y2H1). Put plainly: Selectivity interaction (Kinase panel (KiNativ target engagement assay in Jurkat cells)) EUB0001635a STK38L. Type of assay: cell-based. The conditions noted are these: Selectivity number of off-targets 0.0, Selectivity number of targets 233.0, Source Knowledge https://www.sciencedirect.com/science/article/pii/S2451945619300674?via%3Dihub, at 1 µM.

In assay [2] the target is Cyclin-dependent kinase 14 (Homo sapiens) (UniProt O94921). Put plainly: Selectivity interaction (Kinase panel (KiNativ target engagement assay in Jurkat cells)) EUB0001635a CDK14. Type of assay: cell-based. The conditions noted are these: at 1 µM.
Assay [3] concerns the target Receptor tyrosine-protein kinase erbB-3 (Homo sapiens) (UniProt P21860). Put plainly: Selectivity interaction (KinomeScan (DiscoverX)) EUB0000666a ERBB3. The conditions noted are these: at 10 µM.
Assay [4] can be described thus: Selectivity interaction (KinomeScan (DiscoverX)) EUB0000655a PKNB. The conditions noted are these: at 10 µM.
For assay [5], the target named is Death-associated protein kinase 1 (Homo sapiens, UniProt P53355). Put plainly: Selectivity interaction (KinomeScan (DiscoverX)) EUB0000655a DAPK1. The conditions noted are these: at 10 µM.
For assay [6], the target named is Serine-protein kinase ATM (Homo sapiens) (UniProt Q13315). Put plainly: Selectivity interaction (ActivX KiNativ screen (kinase selectivity in THP-1 cell lysates)) EUB0000639a ATM. Type of assay: subcellular. The conditions noted are these: lysate.
Sequence of Serine-protein kinase ATM (Homo sapiens) (Q13315 whole entry): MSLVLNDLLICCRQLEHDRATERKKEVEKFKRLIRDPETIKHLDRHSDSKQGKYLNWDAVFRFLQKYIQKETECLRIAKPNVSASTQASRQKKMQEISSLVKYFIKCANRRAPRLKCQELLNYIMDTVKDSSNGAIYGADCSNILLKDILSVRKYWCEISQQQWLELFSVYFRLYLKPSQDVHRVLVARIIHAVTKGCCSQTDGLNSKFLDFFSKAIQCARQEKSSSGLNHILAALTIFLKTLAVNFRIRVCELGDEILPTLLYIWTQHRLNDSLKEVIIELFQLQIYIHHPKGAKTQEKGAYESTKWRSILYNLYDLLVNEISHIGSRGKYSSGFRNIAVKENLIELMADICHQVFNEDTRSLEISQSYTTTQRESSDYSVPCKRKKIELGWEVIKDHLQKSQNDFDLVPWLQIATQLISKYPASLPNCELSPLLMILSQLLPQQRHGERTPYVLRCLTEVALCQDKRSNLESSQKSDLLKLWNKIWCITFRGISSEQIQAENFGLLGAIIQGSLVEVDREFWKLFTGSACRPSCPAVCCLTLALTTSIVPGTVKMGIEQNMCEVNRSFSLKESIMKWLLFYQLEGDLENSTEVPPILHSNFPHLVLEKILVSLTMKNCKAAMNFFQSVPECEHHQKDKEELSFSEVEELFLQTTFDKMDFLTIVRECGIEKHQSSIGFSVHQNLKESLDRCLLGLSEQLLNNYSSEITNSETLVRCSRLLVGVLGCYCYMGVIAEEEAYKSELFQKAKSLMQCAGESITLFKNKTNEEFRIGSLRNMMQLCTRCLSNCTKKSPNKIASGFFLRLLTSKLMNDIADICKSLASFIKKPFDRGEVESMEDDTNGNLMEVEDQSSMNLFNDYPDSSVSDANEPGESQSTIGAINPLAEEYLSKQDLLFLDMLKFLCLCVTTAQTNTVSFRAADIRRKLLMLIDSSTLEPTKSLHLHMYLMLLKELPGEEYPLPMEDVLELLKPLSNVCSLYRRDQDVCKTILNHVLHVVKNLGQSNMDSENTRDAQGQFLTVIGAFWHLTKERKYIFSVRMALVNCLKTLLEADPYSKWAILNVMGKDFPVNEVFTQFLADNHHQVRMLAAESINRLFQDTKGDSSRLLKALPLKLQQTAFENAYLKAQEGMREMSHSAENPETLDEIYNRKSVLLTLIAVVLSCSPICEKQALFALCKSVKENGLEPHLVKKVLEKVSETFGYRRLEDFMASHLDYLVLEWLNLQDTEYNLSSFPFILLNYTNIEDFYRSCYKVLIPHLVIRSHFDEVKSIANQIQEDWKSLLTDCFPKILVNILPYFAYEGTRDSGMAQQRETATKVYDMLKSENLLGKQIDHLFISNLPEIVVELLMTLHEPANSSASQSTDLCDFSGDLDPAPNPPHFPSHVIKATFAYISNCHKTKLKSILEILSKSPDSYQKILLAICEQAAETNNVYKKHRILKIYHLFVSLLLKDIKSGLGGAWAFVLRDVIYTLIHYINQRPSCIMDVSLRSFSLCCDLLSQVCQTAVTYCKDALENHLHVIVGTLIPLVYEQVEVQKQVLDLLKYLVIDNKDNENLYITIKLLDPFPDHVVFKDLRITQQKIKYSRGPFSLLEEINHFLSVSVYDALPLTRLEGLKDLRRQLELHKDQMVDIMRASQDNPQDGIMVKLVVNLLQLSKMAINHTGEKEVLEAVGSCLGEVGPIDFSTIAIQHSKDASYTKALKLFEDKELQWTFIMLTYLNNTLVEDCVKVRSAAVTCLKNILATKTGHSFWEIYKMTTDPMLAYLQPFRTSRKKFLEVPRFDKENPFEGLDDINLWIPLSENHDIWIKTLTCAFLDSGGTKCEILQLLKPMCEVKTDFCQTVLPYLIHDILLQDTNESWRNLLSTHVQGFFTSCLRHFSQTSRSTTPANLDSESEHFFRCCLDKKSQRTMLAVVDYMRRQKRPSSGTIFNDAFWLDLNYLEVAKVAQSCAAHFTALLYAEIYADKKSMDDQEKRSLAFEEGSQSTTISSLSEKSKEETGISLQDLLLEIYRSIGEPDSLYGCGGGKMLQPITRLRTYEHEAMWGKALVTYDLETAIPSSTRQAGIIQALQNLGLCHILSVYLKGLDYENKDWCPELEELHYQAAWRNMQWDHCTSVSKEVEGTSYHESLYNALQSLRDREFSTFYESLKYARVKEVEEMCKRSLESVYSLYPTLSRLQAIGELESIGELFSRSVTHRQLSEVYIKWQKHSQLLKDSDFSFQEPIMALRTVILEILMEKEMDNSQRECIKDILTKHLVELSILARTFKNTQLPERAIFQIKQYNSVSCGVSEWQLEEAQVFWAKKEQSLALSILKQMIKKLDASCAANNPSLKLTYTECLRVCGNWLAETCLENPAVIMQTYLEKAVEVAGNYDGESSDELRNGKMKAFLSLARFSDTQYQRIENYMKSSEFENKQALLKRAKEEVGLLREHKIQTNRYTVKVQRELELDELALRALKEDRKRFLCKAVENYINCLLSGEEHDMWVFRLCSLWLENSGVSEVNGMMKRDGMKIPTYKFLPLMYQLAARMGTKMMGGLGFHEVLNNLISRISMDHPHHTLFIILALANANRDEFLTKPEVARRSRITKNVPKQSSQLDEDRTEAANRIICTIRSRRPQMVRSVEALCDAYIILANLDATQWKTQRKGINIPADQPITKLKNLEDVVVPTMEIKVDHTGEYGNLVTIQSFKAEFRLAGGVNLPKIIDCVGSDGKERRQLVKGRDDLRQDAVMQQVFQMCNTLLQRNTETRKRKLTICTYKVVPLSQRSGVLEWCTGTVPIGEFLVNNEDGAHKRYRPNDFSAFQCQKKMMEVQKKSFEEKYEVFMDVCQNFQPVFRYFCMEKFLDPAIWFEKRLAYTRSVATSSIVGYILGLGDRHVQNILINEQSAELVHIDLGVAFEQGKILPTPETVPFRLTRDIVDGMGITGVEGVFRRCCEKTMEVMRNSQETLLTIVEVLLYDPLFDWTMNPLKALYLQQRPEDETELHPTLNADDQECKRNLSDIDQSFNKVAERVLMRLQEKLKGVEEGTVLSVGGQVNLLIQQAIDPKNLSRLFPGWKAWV
Assay [7] concerns the target Tyrosine-protein kinase Fyn (Homo sapiens) (UniProt P06241). Put plainly: Selectivity interaction (Kinase panel (Invitrogen)) EUB0000639a FYN. Conditions: at 200 nM.
Assay [8] concerns the target T1, Mitogen-activated protein kinase kinase kinase 3 (Homo sapiens) (UniProt Q99759).
T1 sequence (whole entry): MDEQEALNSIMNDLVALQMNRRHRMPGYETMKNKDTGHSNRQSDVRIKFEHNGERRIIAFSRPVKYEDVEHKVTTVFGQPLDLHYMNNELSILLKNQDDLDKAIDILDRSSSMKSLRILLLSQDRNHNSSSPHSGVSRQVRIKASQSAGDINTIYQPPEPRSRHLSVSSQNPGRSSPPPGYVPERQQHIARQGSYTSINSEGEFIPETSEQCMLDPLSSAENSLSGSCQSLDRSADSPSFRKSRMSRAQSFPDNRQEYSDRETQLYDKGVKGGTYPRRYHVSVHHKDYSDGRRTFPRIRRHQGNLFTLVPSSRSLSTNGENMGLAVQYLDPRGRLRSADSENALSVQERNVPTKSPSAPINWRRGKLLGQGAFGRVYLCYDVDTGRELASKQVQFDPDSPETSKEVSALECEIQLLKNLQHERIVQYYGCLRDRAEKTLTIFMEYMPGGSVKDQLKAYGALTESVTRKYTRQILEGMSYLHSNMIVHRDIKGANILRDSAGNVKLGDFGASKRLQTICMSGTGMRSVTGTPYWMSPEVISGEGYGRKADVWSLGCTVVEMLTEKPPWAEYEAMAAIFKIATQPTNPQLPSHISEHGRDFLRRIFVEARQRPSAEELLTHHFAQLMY
The assay is described as follows: Selectivity interaction (ActivX KiNativ screen (kinase selectivity in THP-1 cell lysates)) EUB0000639a MAP3K3. Type of assay: subcellular. The conditions noted are these: lysate, at 5 µM.

Assay [9] deals with T2, Serine/threonine-protein kinase LATS1 (Homo sapiens) (UniProt O95835).
T2 sequence (whole entry): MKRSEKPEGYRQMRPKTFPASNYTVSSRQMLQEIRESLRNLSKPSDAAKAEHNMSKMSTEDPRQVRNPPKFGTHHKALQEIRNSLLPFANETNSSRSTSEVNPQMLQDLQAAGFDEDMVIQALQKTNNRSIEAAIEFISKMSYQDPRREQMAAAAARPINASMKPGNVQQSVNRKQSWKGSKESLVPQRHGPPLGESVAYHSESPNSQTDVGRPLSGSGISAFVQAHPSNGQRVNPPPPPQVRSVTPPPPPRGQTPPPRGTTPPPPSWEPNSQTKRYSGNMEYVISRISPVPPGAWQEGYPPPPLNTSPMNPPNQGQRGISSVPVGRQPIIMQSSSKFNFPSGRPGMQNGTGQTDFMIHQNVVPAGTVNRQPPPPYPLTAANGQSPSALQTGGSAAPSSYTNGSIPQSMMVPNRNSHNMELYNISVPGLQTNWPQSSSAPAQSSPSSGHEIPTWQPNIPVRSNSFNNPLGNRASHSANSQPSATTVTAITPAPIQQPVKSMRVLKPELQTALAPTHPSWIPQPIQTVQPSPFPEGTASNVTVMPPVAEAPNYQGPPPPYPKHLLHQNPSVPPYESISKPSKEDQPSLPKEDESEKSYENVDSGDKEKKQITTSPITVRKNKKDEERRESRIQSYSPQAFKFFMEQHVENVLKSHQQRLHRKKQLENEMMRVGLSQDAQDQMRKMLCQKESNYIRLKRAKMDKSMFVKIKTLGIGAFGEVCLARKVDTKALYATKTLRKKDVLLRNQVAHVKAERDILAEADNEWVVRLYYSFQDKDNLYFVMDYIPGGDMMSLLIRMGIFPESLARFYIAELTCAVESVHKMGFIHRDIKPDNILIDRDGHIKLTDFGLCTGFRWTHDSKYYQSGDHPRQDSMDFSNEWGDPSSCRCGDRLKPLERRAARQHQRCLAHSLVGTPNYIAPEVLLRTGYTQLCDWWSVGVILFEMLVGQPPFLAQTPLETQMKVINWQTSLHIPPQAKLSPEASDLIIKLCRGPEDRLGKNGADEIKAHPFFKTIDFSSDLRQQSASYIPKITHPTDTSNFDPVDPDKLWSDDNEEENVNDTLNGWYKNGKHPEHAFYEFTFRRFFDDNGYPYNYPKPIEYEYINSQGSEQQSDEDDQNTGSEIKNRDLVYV
Conditions: at 10 µM.

These results are taken from ChEMBL document CHEMBL5465560, “Selectivity Literature for EUbOPEN Chemogenomic Library” (2024).

Each structure is given as a SMILES string.

Sequence of Receptor tyrosine-protein kinase erbB-3 (Homo sapiens) (P21860 whole entry): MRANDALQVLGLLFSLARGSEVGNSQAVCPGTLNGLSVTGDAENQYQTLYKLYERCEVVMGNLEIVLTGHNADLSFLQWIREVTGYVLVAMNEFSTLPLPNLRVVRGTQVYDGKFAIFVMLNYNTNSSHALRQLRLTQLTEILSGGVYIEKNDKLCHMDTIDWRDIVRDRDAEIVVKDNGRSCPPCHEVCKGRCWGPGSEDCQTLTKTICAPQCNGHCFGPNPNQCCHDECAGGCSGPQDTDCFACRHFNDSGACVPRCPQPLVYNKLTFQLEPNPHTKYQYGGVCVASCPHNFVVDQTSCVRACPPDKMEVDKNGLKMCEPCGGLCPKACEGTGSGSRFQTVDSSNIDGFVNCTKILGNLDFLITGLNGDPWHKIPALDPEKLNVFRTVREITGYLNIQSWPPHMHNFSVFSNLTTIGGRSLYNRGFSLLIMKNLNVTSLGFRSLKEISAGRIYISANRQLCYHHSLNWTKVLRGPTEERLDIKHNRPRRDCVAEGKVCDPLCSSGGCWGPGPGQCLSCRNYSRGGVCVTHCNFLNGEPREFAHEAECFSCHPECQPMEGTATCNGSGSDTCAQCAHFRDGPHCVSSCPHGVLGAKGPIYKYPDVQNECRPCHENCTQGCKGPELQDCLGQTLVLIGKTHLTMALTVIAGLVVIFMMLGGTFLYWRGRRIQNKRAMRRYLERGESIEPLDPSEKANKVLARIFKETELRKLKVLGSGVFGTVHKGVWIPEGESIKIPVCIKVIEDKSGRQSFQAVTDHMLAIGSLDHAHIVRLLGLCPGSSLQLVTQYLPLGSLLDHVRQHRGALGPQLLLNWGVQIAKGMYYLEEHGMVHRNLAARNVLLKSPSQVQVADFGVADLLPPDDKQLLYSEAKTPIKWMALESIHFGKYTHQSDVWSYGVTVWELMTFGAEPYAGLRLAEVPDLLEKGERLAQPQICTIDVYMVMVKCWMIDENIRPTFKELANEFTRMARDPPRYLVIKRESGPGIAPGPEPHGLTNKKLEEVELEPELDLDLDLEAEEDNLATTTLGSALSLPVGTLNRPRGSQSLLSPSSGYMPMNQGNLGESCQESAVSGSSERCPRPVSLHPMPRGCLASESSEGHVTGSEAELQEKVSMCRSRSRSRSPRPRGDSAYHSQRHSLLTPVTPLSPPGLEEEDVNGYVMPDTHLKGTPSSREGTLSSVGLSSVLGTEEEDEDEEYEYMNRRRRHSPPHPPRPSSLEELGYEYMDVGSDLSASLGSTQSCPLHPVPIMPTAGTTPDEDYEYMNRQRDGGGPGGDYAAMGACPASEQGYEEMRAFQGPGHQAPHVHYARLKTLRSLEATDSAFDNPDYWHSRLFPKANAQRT
Sequence of Serine/threonine-protein kinase 38-like (Homo sapiens) (Q9Y2H1 2-464 limits assumed): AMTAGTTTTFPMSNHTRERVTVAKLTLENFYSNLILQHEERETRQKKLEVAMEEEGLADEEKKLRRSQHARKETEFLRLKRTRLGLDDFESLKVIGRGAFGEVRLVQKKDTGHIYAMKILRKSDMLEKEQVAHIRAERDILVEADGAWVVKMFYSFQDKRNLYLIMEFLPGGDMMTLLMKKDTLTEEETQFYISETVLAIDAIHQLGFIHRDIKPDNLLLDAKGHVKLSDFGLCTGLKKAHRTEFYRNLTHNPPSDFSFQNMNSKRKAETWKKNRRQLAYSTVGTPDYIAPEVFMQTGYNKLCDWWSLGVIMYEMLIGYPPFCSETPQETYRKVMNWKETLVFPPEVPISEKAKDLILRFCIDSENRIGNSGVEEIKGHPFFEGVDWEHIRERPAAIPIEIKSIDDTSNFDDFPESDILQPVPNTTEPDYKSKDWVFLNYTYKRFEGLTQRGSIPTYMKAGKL

Regarding `C=CC(=O)Nc1ccc(C(=O)Nc2[nH]nc3c2CN(C(=O)N[C@H](CN(C)C)c2ccccc2)C3(C)C)cc1`, the % of engagement was -0.3% in assay [1] and -33.3% in [2].
`O=C(NOC[C@H](O)CO)c1ccc(F)c(F)c1Nc1ccc(I)cc1F` displayed a % of control in [3] of 100%.
For `CN(C)CCOc1ccc(-c2nc(-c3ccncc3)c(-c3ccc4c(c3)CC/C4=N\O)[nH]2)cc1`, the % of control in assay [4] was found to be 65%; in assay [5], 99%.
In the case of `CC[C@@H]1[C@H](F)C(=O)N[C@@H]1COc1nccc2cc(C(N)=O)c(OC)cc12` [ZIMLOVISERTIB], the % of inhibition in assay [6] (at 0.01 µM) is 12.7%; in assay [6] (at 0.04 µM), -2.1%; in assay [6] (at 0.2 µM), -2.2%; in assay [6] (at 1 µM), -15.7%; in [6] (at 5 µM), 24%; in [7], 16.4%. Further, the % of inhibition in [8] was -26.4%.
`COCC(=O)NC/C=C/c1ccc2ncnc(Nc3ccc(Oc4ccc(C)nc4)c(C)c3)c2c1` [CP-724714]: in [9], the % of control stood at 100%.
